Assay results taken from patent US5236929A, “Compound UCA1064-B” (Kyowa Hakko Kogyo Co., Ltd., priority 1991, dated 1993).
Converted amounts (≈) assume the structure as drawn.

Key:
[1] = system: Mouse mammary cancer SC-4; assay: Anti-tumor activity against mouse mammary cancer SC-4 in BALB/c nu/nu nude mice; format: in vivo; details: once a day, five days after start
Protocol: Mouse mammary cancer SC-4 (8 mm^3) was subcutaneously implanted into BALB/c nu/nu nude mice (5-weeks-old, male) at ventral side using a trockar.
After the volume of the tumor reached 100-300 mm^3, UCA1064-B was subcutaneously administered near the tumor at a dose of 15 mg/kg once a day for 4 days. UCA1064-B was administered in the form of a suspension, which was prepared by triturating 10 mg of UCA1064-B with 20 μl of Tween 80 and then suspending the compound in 0.3% carboxymethyl cellulose (CMC).
For comparison, 100 mg/kg of cortisone was subcutaneously administered once a day for 5 days in a similar manner.
Five days after the start of administration, the anti-tumor activity was determined as T/C (T: the volume of the tumor of the test group, C: the volume of the tumor of the control group).

[2] = system: Bacillus subtilis No. 10707; assay: Antibacterial and antifungal activity, agar dilution method; format: cell-based; details: pH 7, read-out: Minimum Inhibitory Concentration (MIC)
Protocol: (§1) The minimum inhibitory concentration (MIC) of UCA1064-B against various bacteria and fungi was determined by the agar dilution method using a medium (pH 7) prepared by dissolving 3 g of Bacto-Tryptone (Difco Laboratories), 3 g of meat extract, 1 g of yeast extract, 1 g of glucose and 16 g of agar in 1 liter of water.

Candida krusei MTU12041 = assay: as above; format: cell-based; details: Pichia kudriavzevii, pH 7, read-out: Minimum Inhibitory Concentration (MIC)
Protocol: as §1

[3] = system: Enterococcus faecium ATCC10541; assay: as above; format: cell-based; details: pH 7, read-out: Minimum Inhibitory Concentration (MIC)
Protocol: as §1

[4] = system: Klebsiella pneumoniae ATCC10031; assay: as above; format: cell-based; details: pH 7, read-out: Minimum Inhibitory Concentration (MIC)
Protocol: as §1

[5] = system: Saccharomyces cerevisiae MTU09001; assay: as above; format: cell-based; details: pH 7, read-out: Minimum Inhibitory Concentration (MIC)
Protocol: as §1

[6] = system: Salmonella typhi ATCC9992; assay: as above; format: cell-based; details: Salmonella enterica, pH 7, read-out: Minimum Inhibitory Concentration (MIC)
Protocol: as §1

[7] = system: Staphylococcus aureus ATCC6538P; assay: as above; format: cell-based; details: pH 7, read-out: Minimum Inhibitory Concentration (MIC)
Protocol: as §1

BALB 3T3/H-ras cells = assay: Growth inhibition against BALB 3T3 cells transformed by the oncogene H-ras (Giemsa staining); format: cell-based
Protocol: (B) Growth Inhibition Against BALB 3T3 Cells Transformed by the Oncogene H-Ras (Hereinafter Referred to as BALB 3T3/H-Ras Cells)
A BALB 3T3/H-ras cell suspension (3×10^4 cells/ml) prepared by suspending BALB 3T3/H-ras cells in a medium comprising DME medium (Nissui Pharmaceutical Co, Ltd.) and 10% fetal calf serum (hereinafter referred to as Medium A) was put into wells of a 96-well microtiter plate in an amount of 0.1 ml per well. After the plate was incubated at 37° C. for 20 hours in a CO2 -incubator, 0.1 ml of a sample of UCA1064-B appropriately diluted with Medium A was added to each well. The cells were further incubated at 37° C. for 72 hours in the CO2 -incubator. After the culture supernatant was removed, the residue was washed once with physiological saline and then treated with 0.1 ml of methanol for 10 minutes to fix the cells. […] After the staining solution was removed, the residue was washed once with 0.2 ml of water. Then, the dye was extracted with 0.2 ml of 0.1N hydrochloric acid and absorbance was measured at 620 nm with a microplate reader.

Solubility = format: physicochemical

SMILES | T/C (tumor volume of test group / control group) ([1]; 100 mg/kg × 5, subcutaneous, **P < 0.05 (Mann-Whitney U test)) | MIC [2] [µg/mL] | MIC (Candida krusei MTU12041) [µg/mL] | MIC [3] [µg/mL] | MIC [4] [µg/mL] | MIC [5] [µg/mL] | MIC [6] [µg/mL] | MIC [7] [µg/mL] | IC50 (BALB 3T3/H-ras cells; Mus musculus, BALB/3T3, 72 hours, 37° C.) [µg/mL] | growth of cancer cells (conclusion in words) (BALB 3T3/H-ras cells; summary of the results shown (Tables 2 and 3)) | T/C (tumor volume of test group / control group) ([1]; 15 mg/kg × 4, subcutaneous near the tumor, *P < 0.01 (Mann-Whitney U test)) | Solubility (Solubility; alcohol, acetone, ethyl acetate and chloroform) | Solubility (Solubility; water and hexane)
C[C@]12CCC(=O)C=C1CC[C@@H]1[C@@H]2C(=O)C[C@@]2(C)[C@H]1CC[C@]2(O)C(=O)CO [Cortisone, reference compound] | 0.39 | – | – | – | – | – | – | – | – | – | – | – | –
CC(C)C(C)CCC(C)C1CCN=C2C3=C(CCC21C)C1(C)CCC(O)CC1CC3 (stereo not shown) [UCA1064-B] | – | 20 (≈ 48.3 µM) | 0.78 (≈ 1.89 µM) | 40 (≈ 96.7 µM) | > 100 | 0.39 (≈ 0.943 µM) | > 100 | 20 (≈ 48.3 µM) | 3.5 (≈ 8.46 µM) | inhibits the growth of cancer cells | 0.49 | soluble in alcohol, acetone, ethyl acetate and chloroform | insoluble in water and hexane
